Data on 17 compounds can be found in US20220389003A1, “4-SUBSTITUTED INDOLE AND INDAZOLE SULFONAMIDO DERIVATIVES AS PARG INHIBITORS” (IDEAYA BIOSCIENCES, INC., priority 2019, published 2022).

Experiment [1] concerns HCC1806-XRCC1 KD (knock down) cells. Briefly: Cellular viability assay (Cell Titer-Glo). Format: cell-based. The settings on record: 96 h, HCC1806-shXRCC1 cells, 4 days of incubation, read-out: PARGi cell viability. How it is done:
HCC1806-XRCC1 KD (knock down) cells were plated at 2000 cells/well in 96-well white plates with clear flat bottom. After 24 hours, the compounds of the disclosure were added starting at 30 μM for a 9-point dose response curve at 1:3 dilution. The compounds of the disclosure were added by Tecan digital dispenser excluding the outermost wells of the plate. All treatments were done in duplicates. After 4 days of incubation, 50 ul of Cell Titer-Glo (Promega) was added per well. After incubation with the reagent for 15 minutes, luminescence was read using a plate reader (TECAN). Average values of DMSO treated wells in a plate was calculated. All data points were normalized to that of the average DMSO value. The % of control for each sample compared to DMSO treated control samples. Curves are fit as % of control vs. log [compound concentration] using a 4 parameter inhibition model (Levenberg-Marquardt algorithm):
Fit=(A+((B−A)/(1+((C/x)^D))))
On the technique in general: Cellular ATP, detected with luciferase, serves as a proxy for viable cell number.

In experiment [2] the target is T1, PARG (Homo sapiens, UniProt Q86W56). Briefly: Inhibition of PARG enzymatic assay (TR-FRET enzymatic IC50 assay). In kind it is biochemical. Also on record: purchased Peak Proteins. The settings on record: hPARG 250 pM, biotinylated-PARylated PARP substrate 30 nM. How it is done: PARG enzyme was incubated with compound or vehicle (DMSO) and the biotinylated-PARylated PARP substrate in a microtiter plate. After adding detection antibody and streptavidin-europium, and then incubating, the plate was read for fluorescence intensity. The low control (DMSO) with low fluorescence intensity represents no inhibition of enzymatic reaction while the high control (no enzyme) with high fluorescence intensity represents full inhibition of enzymatic reaction.
T1 sequence (Q86W56 whole entry): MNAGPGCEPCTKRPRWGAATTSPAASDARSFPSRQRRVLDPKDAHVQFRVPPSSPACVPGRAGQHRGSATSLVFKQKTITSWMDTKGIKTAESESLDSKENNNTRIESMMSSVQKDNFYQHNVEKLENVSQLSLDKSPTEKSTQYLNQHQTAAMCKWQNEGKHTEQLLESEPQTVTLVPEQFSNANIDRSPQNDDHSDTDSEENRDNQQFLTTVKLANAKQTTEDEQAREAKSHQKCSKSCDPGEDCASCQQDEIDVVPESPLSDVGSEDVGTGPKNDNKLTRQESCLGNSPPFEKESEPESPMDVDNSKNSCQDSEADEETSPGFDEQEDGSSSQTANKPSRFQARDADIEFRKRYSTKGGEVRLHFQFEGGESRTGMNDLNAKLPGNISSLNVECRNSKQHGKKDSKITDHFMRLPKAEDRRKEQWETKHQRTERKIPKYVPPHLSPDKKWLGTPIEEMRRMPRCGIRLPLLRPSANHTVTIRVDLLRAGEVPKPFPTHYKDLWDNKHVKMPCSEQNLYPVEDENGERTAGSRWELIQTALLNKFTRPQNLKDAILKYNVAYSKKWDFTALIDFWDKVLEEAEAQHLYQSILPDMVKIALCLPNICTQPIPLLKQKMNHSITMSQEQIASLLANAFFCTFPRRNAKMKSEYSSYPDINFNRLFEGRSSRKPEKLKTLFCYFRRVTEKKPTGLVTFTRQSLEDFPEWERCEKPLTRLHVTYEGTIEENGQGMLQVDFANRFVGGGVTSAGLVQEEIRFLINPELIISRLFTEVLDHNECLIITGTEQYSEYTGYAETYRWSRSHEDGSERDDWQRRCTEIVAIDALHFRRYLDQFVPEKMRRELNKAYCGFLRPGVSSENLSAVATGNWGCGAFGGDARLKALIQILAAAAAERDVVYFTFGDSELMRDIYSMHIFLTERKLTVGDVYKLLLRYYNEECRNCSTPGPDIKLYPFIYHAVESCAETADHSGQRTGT
• PARG • hPARG: 250 pM, His-tagged, Peak Proteins, 0.96 mg/mL (8.58 μM) • Substrate: 30 nM • Reaction time: 70 minutes • Substrate: hPARP1, His- and TEV-tagged, Peak Proteins, 14 μM • Detection Antibody: anti-His monoclonal antibody-ULight, Perkin Elmer catalog #TRF0105-M • Streptavidin-Europium: Perkin Elmer catalog #AD0062 • Assay buffer: 50 mM Tris-HCl pH 7.4, 50 mM KCl, 3 mM EDTA, 0.4 mM EGTA, 1 mM DTT, 0.01% Tween 20, 0.01% BSA • Temperature: 23° C. • Total volume: 20 μL
• 0% inhibition control: DMSO • 100% inhibition control: No enzyme
• 1. Transfer 5 μL of 3× final concentration of test compounds or DMSO to the appropriate wells of a microtiter plate. • 2. Centrifuge the plate at 1000 rpm for 1 minute. • 3. Transfer 5 μL of 3× final concentration of enzyme in assay buffer or assay buffer alone to the appropriate wells. • 4. Centrifuge the plate at 1000 rpm for 1 minute. • 5. Incubate the plate at room temperature for 1 hour. • 6. Transfer 5 μL of 3× substrate in assay buffer to all the test wells. • 7. Centrifuge the plate at 1000 rpm for 1 minute. • 8. Incubate the plate at room temperature for 10 minutes. • 9. Transfer 5 μL of 3× mixture of detection antibody and streptavidin-europium in assay buffer to all the test wells. • 10. Centrifuge the plate at 1000 rpm for 1 minute. • 11. Incubate the plate at room temperature for 1 hour. • 12. Read the plate on a plate reader (e.g., Infinite M1000).
A general note: Time-resolved FRET reads energy transfer from a long-lived donor to a nearby acceptor.

For experiment [3], the target named is T1, PARG. As to the kind of experiment: Inhibition of PARG cellular assay (PAR foci in HeLa cells after MMS). In kind it is cell-based. On the set-up: endogenous in cells; host or cells: HeLa. The settings on record: compound 1 h then MMS 1 h. How it is done:
The ability of the compounds disclosed herein to inhibit PARG was determined as described below. Briefly, after treating HeLa cells with the compounds of the disclosure for 1 h, followed by treatment with DNA alkylating agent methylmethanesulfonate (MMS) for an additional 1 h, the cells were fixed in 3.7% formaldehyde. The cells were permeabilized in 0.5% Triton-X100, blocked in 5% goat serum, and incubated with mouse monoclonal antibody against poly (ADP) ribose (PAR) polymer overnight at 4° C. The cells were washed and incubated with an Alexafluor 488-linked secondary antibody together with a nuclear stain (Hoechst 33342) for an hour at room temperature. After washing, images of the cells were captured and analyzed on a high content imaging microscope and software. Two measurement of PAR chain were quantified with the mean intensity over background of the nuclear foci (fluorescent signal at 488 nm range 0.3-2.0 μm foci) quantified as PAR foci (PAR Foci IC50). The cells with a PAR foci signal >1.3 was considered as positive (PAR % positive IC50), and the percentage positive cells are quantified.

In the case of `N#CC1(NS(=O)(=O)c2cc(N3CC[C@H]4COC[C@H]4C3)c3cnn(-c4nnc(C(F)F)s4)c3c2)CC1` (relative stereo) [Example 56, 1-[({1-[5-(difluoromethyl)(1,3,4-thiadiazol-2-yl)]-4-(cis-8-oxa-3-azabicyclo-[4.3.0]non-3-yl)-1H-indazol-6-yl}sulfonyl)amino]cyclopropanecarbonitrile], the IC50 was in the range of 10 to 20 µM in experiment [1] and 0.3 to 1 µM on PARG [2].
In the same order, the values of `N#CC1(NS(=O)(=O)c2cc(-c3ccc4cn[nH]c4c3)c3cnn(-c4nnc(C(F)F)s4)c3c2)CC1` [Example 2, 1-[({4-(1H-indazol-6-yl)-1-[5-(difluoromethyl)(1,3,4-thiadiazol-2-yl)]-1H-indazol-6-yl}sulfonyl)amino]cyclopropanecarbonitrile] are 20 to 30 µM and 1 to 10 µM.
The like results for `CN(C)C(=O)c1ccc(-c2cc(S(=O)(=O)NC3(C#N)CC3)cc3c2cnn3-c2nnc(C(F)F)s2)cc1` [Example 3, [4-(1-[5-(difluoromethyl)(1,3,4-thiadiazol-2-yl)]-6-{[(cyanocyclopropyl)amino]sulfonyl}(1H-indazol-4-yl))phenyl]-N,N-dimethylcarboxamide] were, in that order, 10 to 20 µM and 0.1 to 0.3 µM.
In the same order, the values of `CN(C)C(=O)c1cccc(-c2cc(S(=O)(=O)NC3(C#N)CC3)cc3c2cnn3-c2nnc(C(F)F)s2)c1` [Example 4, [3-(1-[5-(difluoromethyl)(1,3,4-thiadiazol-2-yl)]-6-{[(cyanocyclopropyl)amino]sulfonyl}(1H-indazol-4-yl))phenyl]-N,N-dimethylcarboxamide] are 20 to 30 µM and 0.3 to 1 µM.
For `N#CC1(NS(=O)(=O)c2cc(N3CCC4(COC4)C3)c3cnn(-c4nnc(C(F)F)s4)c3c2)CC1` [Example 34, 1-[({1-[5-(difluoromethyl)(1,3,4-thiadiazol-2-yl)]-4-(2-oxa-6-azaspiro[3.4]oct-6-yl)-1H-indazol-6-yl}sulfonyl)amino]cyclopropanecarbonitrile], the IC50 in experiment [1] fell in the range of 20 to 30 µM; on PARG [2], 0.3 to 1 µM.
The like results for `Cn1cnnc1N1CCN(c2cc(S(=O)(=O)NC3(C#N)CC3)cc3c2cnn3-c2nnc(C(F)F)s2)CC1` [Example 36, 1-[({1-[5-(difluoromethyl)(1,3,4-thiadiazol-2-yl)]-4-[4-(4-methyl(1,2,4-triazol-3-yl))piperazinyl]-1H-indazol-6-yl}sulfonyl)amino]cyclopropanecarbonitrile] were, in that order, 10 to 20 µM and at most 0.1 µM.
The like results for `CNC(=O)C1CCN(c2cc(S(=O)(=O)NC3(C#N)CC3)cc3c2cnn3-c2nnc(C(F)F)s2)C1` (stereo not shown) [Example 53, [1-(1-[5-(difluoromethyl)(1,3,4-thiadiazol-2-yl)]-6-{[(cyanocyclopropyl)amino]sulfonyl}(1H-indazol-4-yl))pyrrolidin-3-yl]-N-methylcarboxamide] were, in that order, 10 to 20 µM and 0.1 to 0.3 µM.
The like results for `CN(C)C(=O)C1CCN(c2cc(S(=O)(=O)NC3(C#N)CC3)cc3c2cnn3-c2nnc(C(F)F)s2)C1` (stereo not shown) [Example 54, [1-(1-[5-(difluoromethyl)(1,3,4-thiadiazol-2-yl)]-6-{[(cyanocyclopropyl)amino]sulfonyl}(1H-indazol-4-yl))pyrrolidin-3-yl]-N,N-dimethylcarboxamide] were, in that order, 10 to 20 µM and 0.1 to 0.3 µM.
In the case of `COC(=O)N1CCN(c2cc(S(=O)(=O)NC3(C#N)CC3)cc3c2cnn3-c2nnc(C(F)F)s2)CC1` [Example 58, methyl 4-(1-[5-(difluoromethyl)(1,3,4-thiadiazol-2-yl)]-6-{[(cyanocyclopropyl)amino]sulfonyl}-1H-indazol-4-yl)piperazinecarboxylate], the IC50 was 1 to 10 µM in experiment [1] and at most 0.1 µM against PARG [2].
In the same order, the values of `N#CC1(NS(=O)(=O)c2cc(N3CCN4C(=O)OC[C@H]4C3)c3cnn(-c4nnc(C(F)F)s4)c3c2)CC1` [Example 61, 1-[({4-((1R)-7-oxo-8-oxa-3,6-diazabicyclo[4.3.0]non-3-yl)-1-[5-(difluoromethyl) (1,3,4-thiadiazol-2-yl)]-1H-indazol-6-yl}sulfonyl)amino]cyclopropanecarbonitrile] are 1 to 10 µM and at most 0.1 µM.
In the same order, the values of `CN1CCCN(c2cc(S(=O)(=O)NC3(C#N)CC3)cc3c2cnn3-c2nnc(C(F)F)s2)CC1` [Example 63, 1-[({1-[5-(difluoromethyl)(1,3,4-thiadiazol-2-yl)]-4-(4-methyl(1,4-diazaperhydroepinyl))-1H-indazol-6-yl}sulfonyl)amino]cyclopropanecarbonitrile] are 10 to 20 µM and at most 0.1 µM.
Take `N#CC1(NS(=O)(=O)c2cc(N3CCC(C(F)F)CC3)c3cnn(-c4nnc(C(F)F)s4)c3c2)CC1` [Example 64, 1-[({1-[5-(difluoromethyl)(1,3,4-thiadiazol-2-yl)]-4-[4-(difluoromethyl)piperidyl]-1H-indazol-6-yl}sulfonyl)amino]cyclopropanecarbonitrile]: the IC50 was 20 to 30 µM in experiment [1] and 1 to 10 µM at PARG [2].
The like results for `CNC(=O)N1CCN(c2cc(S(=O)(=O)NC3(C#N)CC3)cc3c2cnn3-c2nnc(C(F)F)s2)CC1` [Example 74, 4-(6-(N-(1-cyanocyclopropyl)sulfamoyl)-1-(5-(difluoromethyl)-1,3,4-thiadiazol-2-yl)-1H-indazol-4-yl)-N-methylpiperazine-1-carboxamide] were, in that order, 1 to 10 µM and at most 0.1 µM.
For the compound `CNC(=O)C1CN(c2cc(S(=O)(=O)NC3(C#N)CC3)cc3c2cnn3-c2nnc(C(F)F)s2)C1` [Example 75, 1-(6-(N-(1-cyanocyclopropyl)sulfamoyl)-1-(5-(difluoromethyl)-1,3,4-thiadiazol-2-yl)-1H-indazol-4-yl)-N-methylazetidine-3-carboxamide], the results for the IC50 (in experiment [1]; on PARG [2]) were 20 to 30 µM and 0.3 to 1 µM, respectively.
With `N#CC1(NS(=O)(=O)c2cc(N3CCCC3)c3cnn(-c4nnc(C(F)F)s4)c3c2)CC1` [Example 101, 1-[({1-[5-(difluoromethyl)(1,3,4-thiadiazol-2-yl)]-4-pyrrolidinyl-1H-indazol-6-yl}sulfonyl)amino]cyclopropanecarbonitrile], the IC50 against PARG [2] and against PARG [3] was 1 to 10 µM each time.
For `CN1CCN(c2cc(S(=O)(=O)NC3(C#N)CC3)cc3c2cnn3-c2nnc(C(F)F)s2)CC1` [Example 102, 1-[({1-[5-(difluoromethyl)(1,3,4-thiadiazol-2-yl)]-4-(4-methylpiperazinyl)-1H-indazol-6-yl}sulfonyl)amino]cyclopropanecarbonitrile], the results for the IC50 on PARG [2] and against PARG [3] were 0.1 to 0.3 µM and 0.3 to 1 µM, respectively.
The like results for `N#CC1(NS(=O)(=O)c2cc(N3CCC(F)(F)CC3)c3cnn(-c4nnc(C(F)F)s4)c3c2)CC1` [Example 105, 1-[({1-[5-(difluoromethyl)(1,3,4-thiadiazol-2-yl)]-4-(4,4-difluoropiperidyl)-1H-indazol-6-yl}sulfonyl)amino]cyclopropanecarbonitrile] were, in that order, 1 to 10 µM and 0.3 to 1 µM.
